Patent US20260317333A1, “Heteroaryl Compounds as Ligand Directed Degraders of IRAK4” (Celgene Corporation, priority 2023, published 2026)
Where a name gives a salt, the structure may show the parent alone.

Key:
IRAK4 [1] = biological target: T1, IRAK4 (Homo sapiens, UniProt Q9NWZ3); assay: ALE THP1 HTRF (IRAK4 degradation in THP1 cells, HTRF with anti-IRAK4 antibodies); assay type: cell-based; parameters: THP1 Homogeneous Time Resolved Fluorescence (ALE THP1 HTRF) Procedure; endogenous in cells; host or cells: THP1; conditions: THP1 cell lysate; for DC50: read-out: ALE THP1 HTRF EC50
T1 sequence (Q9NWZ3 1-460): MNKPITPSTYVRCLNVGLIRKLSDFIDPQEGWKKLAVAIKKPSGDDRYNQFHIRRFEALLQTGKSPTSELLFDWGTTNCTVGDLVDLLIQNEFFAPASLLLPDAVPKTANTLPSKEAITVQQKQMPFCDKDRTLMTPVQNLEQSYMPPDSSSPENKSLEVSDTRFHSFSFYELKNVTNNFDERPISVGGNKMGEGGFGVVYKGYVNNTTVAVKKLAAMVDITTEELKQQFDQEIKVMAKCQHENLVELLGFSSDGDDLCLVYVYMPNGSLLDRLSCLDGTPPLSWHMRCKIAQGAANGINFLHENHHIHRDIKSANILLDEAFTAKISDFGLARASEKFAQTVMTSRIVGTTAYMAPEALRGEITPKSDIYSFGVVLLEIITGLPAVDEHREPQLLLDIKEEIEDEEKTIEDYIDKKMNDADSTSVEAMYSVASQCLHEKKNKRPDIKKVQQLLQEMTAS
Procedure: Cell culture media was prepared in a tissue culture hood in a sterile environment by adding 10% FBS and 1% Penicillin Streptomycin to 500 mL no phenol red RPMI 1640 media. The media was filtered through a Nalgene Bottle Top Filter and stored at 4° C.
For Homogenous Time Resolved Fluorescence (HTRF) assays, a Cisbio HTRF kit was used, which included: Lysis Buffer #1 4×, Blocking Reagent #3 100×, 20× Antibody 1 (Anti-IRAK4 d2), 20× Antibody 2 (Anti-IRAK4 k), and Detection Buffer.
4× Lysis Buffer was stored at 4° C. For use as 1× Lysis buffer, the 4× solution was diluted with de-ionized water (distilled water, Gibco Cat. #15230279) and 100× Blocking Reagent in a 1:3:0.04 volume ratio.
20× Antibody Solution aliquots were stored at −80° C. and the Detection Buffer was stored at 4° C. For use as a 1× Antibody Solution, the 20× Antibody Solution aliquot was diluted with Detection Buffer in a 1:19 volume ratio.
Cells were lysed at room temperature for 45 min with shaking. A BCA protein assay was performed and normalization was conducted to the desired total protein concentration with 1× lysis buffer. Next, 1× Antibody Solutions were prepared by adding 380 μL Detection Buffer to 20 μL 20× Antibody Solution aliquots and mixing well. 1× Antibody Solutions were combined 1:1 and briefly vortexed. For control wells, 20 μL 1× anti IRAK4-k Antibody Solution was saved. The 384-well plate (ProxiPlate-384 Plus, Perkin Elmer Cat. #6008289) was loaded by adding 4 μL of the mixed Antibody Solution to empty wells using a single channel repeater. Using a multi-channel repeater, 16 μL lysate was added per well, and any bubbles that were formed were popped with 20 μL pipette tips and Kimwipe edges. In column 10, triplicates of each control were prepared. In wells A10, B10, and C10, buffer control was prepared by adding 16 μL Lysis Buffer and 4 μL Detection Buffer. In wells D10, E10, and F10, cryptate control was prepared by adding 16 μL Lysis Buffer, 2 μL Detection Buffer, and 2 μL 1× anti-IRAK4-k Antibody Solution. In wells G10, H10, and I10, a negative control was prepared by adding 16 μL Lysis Buffer and 4 μL mixed Antibody Solution. The plate was sealed with a clear seal and covered with an aluminum lid. The plate was spun down at 800 g for 5 min and incubated in the dark at room temperature overnight. The next day, the plate was spun down at 800 g for 5 min. The samples were analyzed by a plate reader (Envision, PerkinElmer) using the Desnor 384 HTRF program.

IRAK4 [2] = biological target: T1, IRAK4; assay: IRAK4 PhosphoSens Biochemical Assay (BIOCHEM); conditions: 200 μM ATP; 10 μM peptide substrate AQT0326; 1 nM IRAK4; room temperature; 240 minutes
Procedure: The PhosphoSens® biochemical assay was performed as described by the vendor (AssayQuant Technologies Inc. Marlborough, MA). A 1.25× stock solution of IRAK4 (PV4002, ThermoFisher Scientific, Waltham, MA) and a 5× stock solution of ATP and Sox conjugated peptide substrate, AQT0326 (CSKS-AQT0326B, AssayQuant Technologies), were prepared in 1× kinase reaction buffer consisting of 50 mM HEPES, pH 7.5, 0.01% Brij-35, 0.5 mM EGTA, 20 mM MgCl2 and 1 mM DTT. 10 μL of the ATP and substrate solution mix, for a final concentration of 200 μM ATP and 10 μM peptide substrate, was added to a Corning 3574 384-well, white, non-binding surface microtiter plate containing 0.5 μL of serially diluted test compounds prepared in DMSO. The reactions were started with the addition of 40 μL of the enzyme solution, for a final IRAK4 concentration of 1 nM, and monitored every 71 seconds for 240 minutes at λEX 360/λEM 485 in a BioTek Synergy H4 plate reader (Agilent Technologies, Santa Clara, CA) at room temperature. The initial linear portions of the progress curves were fit according to a linear equation to yield the slopes and converted to % inhibition based on a value of 100% activity for the no inhibitor treated control. IC50 values of each compound were obtained by fitting the % inhibition-compound concentration curves using Dotmatics software (Dotmatics, Bishops Stortford, Hertfordshire, England).

| ALE THP1 HTRF YMIN (IRAK4 [1]) | DC50 (IRAK4 [1]) | IC50 (IRAK4 [2]) | Structure (SMILES) |
| --- | --- | --- | --- |
| 10% | 7 nM | 0.4 nM | N[C@@H]1C[C@@H](F)CN(c2ccn3ncc(C(=O)Nc4cn([C@H]5CC[C@H](C(=O)N6CCC(CNc7cccc(C8CCC(=O)NC8=O)c7)CC6)CC5)nc4C(F)(F)F)c3n2)C1 (stereo partly drawn) [Compound P-1, N-[1-[4-[4-[[3-(2,6-dioxo-3-piperidyl)anilino]methyl]piperidine-1-carbonyl]cyclohexyl]-3-(trifluoromethyl)pyrazol-4-yl]-5-[(3R,5R)-3-amino-5-fluoro-1-piperidyl]pyrazolo[1,5-a]pyrimidine-3-carboxamide hydrochloride salt] |
| 68% | 96 nM | 0.3 nM | N[C@@H]1C[C@@H](F)CN(c2ccn3ncc(C(=O)Nc4cn([C@H]5CC[C@H](C(=O)N6CCC(CNc7ccc(C8CCC(=O)NC8=O)cc7)CC6)CC5)nc4C(F)(F)F)c3n2)C1 (stereo partly drawn) [Compound P-2, N-[1-[4-[4-[[4-(2,6-Dioxo-3-piperidyl)anilino]methyl]piperidine-1-carbonyl]cyclohexyl]-3-(trifluoromethyl)pyrazol-4-yl]-5-[(3R,5R)-3-amino-5-fluoro-1-piperidyl]pyrazolo[1,5-a]pyrimidine-3-carboxamide hydrochloride] |
| 81% | 177 nM | 0.3 nM | N[C@@H]1C[C@@H](F)CN(c2ccn3ncc(C(=O)Nc4cn([C@H]5CC[C@H](CN6CCC(CNc7ccc(C8CCC(=O)NC8=O)cc7)CC6)CC5)nc4C(F)(F)F)c3n2)C1 (stereo partly drawn) [Compound P-3] |
| 52% | > 10000 nM | 0.3 nM | N[C@@H]1C[C@@H](F)CN(c2ccn3ncc(C(=O)Nc4cn([C@H]5CC[C@H](C(=O)N6CCC(Nc7ccc(C8CCC(=O)NC8=O)cc7)CC6)CC5)nc4C(F)(F)F)c3n2)C1 (stereo partly drawn) [Compound P-7] |
| 86% | > 10000 nM | 0.3 nM | N[C@@H]1C[C@@H](F)CN(c2ccn3ncc(C(=O)Nc4cn([C@H]5CC[C@H](C(=O)N6CCC(Nc7cccc(C8CCC(=O)NC8=O)c7)CC6)CC5)nc4C(F)(F)F)c3n2)C1 (stereo partly drawn) [Compound P-9] |
| 20% | 964 nM | 0.6 nM | N[C@@H]1C[C@@H](F)CN(c2ccn3ncc(C(=O)Nc4cn([C@H]5CC[C@H](CN6CCN(c7ccc(C8CCC(=O)NC8=O)cc7)CC6)CC5)nc4C(F)(F)F)c3n2)C1 (stereo partly drawn) [Compound P-10] |
| 19% | 15 nM | 0.4 nM | N[C@@H]1C[C@@H](F)CN(c2ccn3ncc(C(=O)Nc4cn([C@H]5CC[C@H](CCN6CCN(c7ccc(C8CCC(=O)NC8=O)cc7)CC6)CC5)nc4C(F)(F)F)c3n2)C1 (stereo partly drawn) [Compound P-11, 5-((3R,5R)-3-Amino-5-fluoropiperidin-1-yl)-N-(1-((1r,4r)-4-(2-(4-(4-(2,6-dioxopiperidin-3-yl)phenyl)piperazin-1-yl)ethyl)cyclohexyl)-3-(trifluoromethyl)-1H-pyrazol-4-yl) pyrazolo[1,5-a]pyrimidine-3-carboxamide hydrochloride] |
| 15% | 6 nM | – | N[C@@H]1C[C@@H](F)CN(c2ccn3ncc(C(=O)Nc4cn([C@H]5CC[C@H](C(=O)NC6CCN(c7ccc(C8CCC(=O)NC8=O)nc7)CC6)CC5)nc4C(F)F)c3n2)C1 (stereo partly drawn) [Compound P-25] |
| 7% | 15 nM | – | N[C@@H]1C[C@@H](F)CN(c2ccn3ncc(C(=O)Nc4cn([C@H]5CC[C@H](CCN6CCC7(CC6)CN(c6cccc(C8CCC(=O)NC8=O)c6)C7)CC5)nc4C(F)F)c3n2)C1 (stereo partly drawn) [Compound P-26] |
| 16% | 10 nM | – | N[C@@H]1C[C@@H](F)CN(c2ccn3ncc(C(=O)Nc4cn(C5CCN(CCN6CCN(c7ccc(C8CCC(=O)NC8=O)cc7)CC6)CC5)nc4C(F)F)c3n2)C1 (stereo partly drawn) [Compound P-27, 5-((3R,5R)-3-Amino-5-fluoropiperidin-1-yl)-N-(3-(difluoromethyl)-1-(1-(2-(4-(4-(2,6-dioxopiperidin-3-yl)phenyl)piperazin-1-yl)ethyl)piperidin-4-yl)-1H-pyrazol-4-yl) pyrazolo[1,5-a]pyrimidine-3-carboxamide trihydrochloride] |
| >95% | > 10000 nM | – | N[C@@H]1C[C@@H](F)CN(c2ccn3ncc(C(=O)Nc4cn([C@H]5CC[C@H](CCN6CCC[C@H](c7ccc(C8CCC(=O)NC8=O)cc7)C6)CC5)nc4C(F)F)c3n2)C1 (stereo partly drawn) [Compound P-28] |
| >95% | > 10000 nM | – | N[C@@H]1C[C@@H](F)CN(c2ccn3ncc(C(=O)Nc4cn([C@H]5CC[C@H](C(=O)N[C@H]6CC[C@@H](c7ccc(C8CCC(=O)NC8=O)nc7)CC6)CC5)nc4C(F)F)c3n2)C1 (stereo partly drawn) [Compound P-30] |
| >95% | > 10000 nM | – | N[C@@H]1C[C@@H](F)CN(c2ccn3ncc(C(=O)Nc4cn([C@H]5CC[C@H](C(=O)N[C@H]6CC[C@@H](c7ccc(C8CCC(=O)NC8=O)cn7)CC6)CC5)nc4C(F)F)c3n2)C1 (stereo partly drawn) [Compound P-31] |
| 21% | 5 nM | – | N[C@@H]1C[C@@H](F)CN(c2ccn3ncc(C(=O)Nc4cn([C@H]5CC[C@H](C(=O)NC6CCN(c7ccc(C8CCC(=O)NC8=O)cn7)CC6)CC5)nc4C(F)F)c3n2)C1 (stereo partly drawn) [Compound P-32, N-[3-(Difluoromethyl)-1-[4-[[1-[5-(2,6-dioxo-3-piperidyl)-2-pyridyl]-4-piperidyl]carbamoyl]cyclohexyl]pyrazol-4-yl]-5-[(3R,5R)-3-amino-5-fluoro-1-piperidyl]pyrazolo[1,5-a]pyrimidine-3-carboxamide hydrochloride] |
| 22% | 3 nM | – | N[C@@H]1C[C@@H](F)CN(c2ccn3ncc(C(=O)Nc4cn([C@H]5CC[C@H](C(=O)N[C@H]6CC[C@H](c7ccc(C8CCC(=O)NC8=O)cn7)CC6)CC5)nc4C(F)F)c3n2)C1 (stereo partly drawn) [Compound P-33] |
| 13% | 5 nM | – | N[C@@H]1C[C@@H](F)CN(c2ccn3ncc(C(=O)Nc4cn([C@H]5CC[C@H](C(=O)N[C@H]6CC[C@H](c7ccc(C8CCC(=O)NC8=O)nc7)CC6)CC5)nc4C(F)F)c3n2)C1 (stereo partly drawn) [Compound P-34] |
